Laboratory results reported in patent US11033538B2, “Dosing regimens for the treatment of lysosomal storage diseases using pharmacological chaperones” (Amicus Therapeutics, Inc., priority 2007, dated 2021).
Numbering of substitutions follows the chain as printed. Where two headings read alike, the source gives them in different places.

Experiments:
[1] = Clinical safety and tolerability of 1-Deoxynorjirimycin, single and repeat doses; assay type: in vivo, human
[2] = system: rats; details: rat, in vivo
[3] = Pharmacokinetics of 1-Deoxynorjirimycin; details: is believed
[4] = in vivo; details: plasma
[5] = system: monkeys; details: monkey, in vivo
[6] = system: rats; test: Nonclinical toxicology studies of IFG, rats; assay type: in vivo
Excerpt: (§1) In the lysosome, when the pharmacological chaperone dissociates from the enzyme, the enzyme can perform its normal function, which is to catalyze the breakdown of glucosylceramide (GlcCer), the GCase substrate.

[7] = system: monkeys; test: Nonclinical toxicology studies of IFG, monkeys; assay type: in vivo
Excerpt: as §1

[8] = biological target: T1, GCase (Homo sapiens, UniProt P04062); test: WBC GCase levels in healthy subjects receiving IFG (Phase 1 multiple-dose study); assay type: in vivo
T1 construct: endogenous in cells; host or cells: white blood cells of healthy subjects; healthy human skin fibroblasts
T1 sequence (P04062 40-536): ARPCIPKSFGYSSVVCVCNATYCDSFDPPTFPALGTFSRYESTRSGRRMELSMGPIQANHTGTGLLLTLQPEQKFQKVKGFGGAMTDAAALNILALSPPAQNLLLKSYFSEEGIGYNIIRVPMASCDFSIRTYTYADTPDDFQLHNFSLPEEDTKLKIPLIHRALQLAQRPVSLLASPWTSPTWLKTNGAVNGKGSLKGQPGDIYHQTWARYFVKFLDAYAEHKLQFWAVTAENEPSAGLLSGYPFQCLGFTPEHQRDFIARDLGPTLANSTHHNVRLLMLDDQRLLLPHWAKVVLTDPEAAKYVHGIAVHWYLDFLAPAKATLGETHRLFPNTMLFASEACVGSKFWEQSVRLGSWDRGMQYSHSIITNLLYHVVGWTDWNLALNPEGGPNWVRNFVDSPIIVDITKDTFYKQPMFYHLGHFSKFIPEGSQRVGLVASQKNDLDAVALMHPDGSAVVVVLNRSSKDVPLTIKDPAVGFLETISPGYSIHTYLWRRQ
Experimental: (§2) Blood samples were collected for pharmacokinetic analysis before the initial drug administration on Day 1, before the 5th, 6th and 7th doses (on Days 5, 6 and 7) (for Cmin determination), and at the following times after the 1st (Day 1) and 7th (Day 7) doses: 0.5, 1, 1.5, 2, 3, 4, 5, 6, 8, 10, 12, 15, 18, and 24 hours. […] In addition, blood samples were collected for pharmacodynamic measurements, i.e., analysis of WBC GCase levels, before dosing on Day 1, Day 3, Day 5, and Day 7, and at return visits on Day 9, Day 14 and Day 21.

[9] = Example 10, pharmacokinetic/tissue distribution of isofagomine in rats; assay type: in vivo
Experimental: A single dose of 600 mg/kg of isofagomine was administered to rats via PO gavage. The concentration of isofagomine (μM) in plasma, liver, spleen and brain tissue was ascertained at regular time intervals at dosing (t=0) through 48 hours after dosing.

[10] = system: GCase; test: GCase activity in Gaucher patient-derived fibroblasts, lymphoblasts and macrophages after IFG for 5 days; assay type: cell-based, human; details: lymphoblast and macrophages
Excerpt: FIGS. 4A, 4B, and 4C. […] FIG. 4A depicts GCase activity in fibroblasts; FIG. 4B depicts GCase activity in lymphoblasts; and FIG. 4C depicts GCase activity in macrophages.

[11] = system: GCase; test: IFG in a mouse model of GD; assay type: in vivo
Excerpt: as §1

[12] = biological target: T2, N370S GCase (Homo sapiens, UniProt P04062, N409S); test: Expected N370S GCase accumulation parameters estimated from wild-type PK/PD
T2 sequence (P04062 40-536 N409S): T1 sequence (P04062 40-536) with N370S
Excerpt: For example, the most prevalent mutation in Gaucher disease is N370S. […] Accordingly, the rate of N370S turnover and the dose that will yield the maximum rate of GCase accumulation, can be estimated based on the differences in PK and PD parameters as compared with the wild-type enzyme: […]

[13] = system: GCase; test: GCase levels and trafficking in vitro with IFG (fibroblasts of GD patients); assay type: cell-based, human
Excerpt: as §1

[14] = Phase 1 multiple-dose study of IFG in healthy subjects, plasma pharmacokinetics; assay type: in vivo, human; details: for Cmax / half-life / Tmax: human, plasma
Experimental: as §2

## OC[C@H]1NC[C@H](O)[C@@H](O)[C@@H]1O [1-Deoxynorjirimycin, (2R,3R,4R,5S)-2-(hydroxymethyl) piperidine-3,4,5-triol]
[1]; for 2 weeks
  repeat doses (safe and well tolerated): up to 2 grams per day
[1]; patients receiving drug
  severity of adverse events: mild or moderate in severity
[1]; single doses
  single doses appearing safe and well tolerated: up to 600 mg
[2]
  tolerability in short-term safety studies: well tolerated
[3]
  oral bioavailability: high oral bioavailability
[4]
  half-life: 4 to 8 h
[5]
  tolerability in short-term safety studies: well tolerated

## OC[C@H]1CNC[C@@H](O)[C@@H]1O [IFG, (2R,3R,4R)-5-(hydroxymethyl)-piperidine-3,4-diol]
[6]
  safety and tolerability of repeated dosing: generally safe and well tolerated
[7]
  safety and tolerability of repeated dosing: generally safe and well tolerated
[8]; Wild-type
  Daily dose that yields max rate of accumulation during Initial Enzyme Build-Up phase: ≤75 mg
  Max. rate of enzyme loss: ~−3.5 Units/day
[8]; Wild-type, 1 unit = 1 nmole of 4-MU liberated per mg of total protein per hour
  Max. rate of enzyme accumulation: ~7 Units/day
[8]; healthy subjects
  lowest daily dose that achieved the maximum rate of GCase accumulation over 7 days: about 75 mg
[8]; healthy subjects, 7-day treatment
  maximum increase in GCase enzyme level in white blood cells: approximately 3.5 fold above baseline
[9]; liver and plasma, single 600 mg/kg PO
  time after which levels fall below the GCASE Ki value: 48 h
[9]; single 600 mg/kg PO gavage, plasma, liver, spleen, brain
  time for all tissues to attain levels exceeding the GCase enhancement EC50: ≤ 15 min
[9]; spleen and brain tissue
  clearance from tissue: slower clearance
[10]
  IFG concentration range at which maximum chaperoning (Emax) occurs: 10 to 100 µM
[11]
  plasma levels of chitinase and IgG: reduces plasma levels of chitinase and immunoglobulin G (IgG)
  tissue GCase activity: increases tissue GCase activity
[12]
  Daily dose that yields max rate of accumulation during Initial Enzyme Build-Up phase: ≤150 to 300 mg
  Max. rate of enzyme accumulation: ~0.35 Units/day
  Max. rate of enzyme loss: ~−0.17 Units/day
[13]; fibroblasts of GD patients
  GCase trafficking to the lysosome: increases GCase trafficking to the lysosome in fibroblasts of GD patients
[13]; in vitro
  GCase total cellular enzyme levels: increases GCase total cellular enzyme levels in vitro
[14]; after 7 days of oral administration, 25, 75 or 225 mg daily
  pharmacokinetic behavior: linear with dose
[14]; oral, 25 mg
  Cmax: 310 nM
[14]; oral, 150 mg
  Cmax: 1700 nM
[14]; oral, healthy subjects, multiple-dose study, SEM: 2 hr., read-out: plasma elimination half-life (converted)
  half-life: ~14 h
[14]; oral, read-out: Half-life (converted)
  half-life: 14 h
[14]; oral, read-out: Tmax
  Tmax: 3 h
[14]; healthy subjects, multiple-dose study, 7 days oral, SEM: 0.6 hr., read-out: Mean plasma levels (Tmax) peaked
  Tmax: ~3.4 h
